Tested on: HUVEC/MSC spheroids viability
Assay: Human HUVEC/MSC cell line growth inhibition [KRAS2];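 on viability, T/C: percent of DMSO vehicle control luminescence so 100% = untreated viability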
Conditions: for IC50: curve of first compound; for viability, T/C: stronger effect = lower value; active means viability on the fitted dose curve at most 10% of control; inactive means the rest
Summary of the method: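 HUVEC + hMSC stromal spheroids only, no malignant cells; 37 °C, 5% CO2. Drugs singly and in pairs, half-log series down from clinical Cmax (max 10 microM if Cmax undetermined).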

[1] = second compound 0.0316 µM, first compound 0.0316 µM
[2] = second compound 0.0316 µM, first compound 0.1 µM
[3] = second compound 0.0316 µM, first compound 0.316 µM
[4] = second compound 0.0316 µM, first compound 1 µM
[5] = second compound 0.0316 µM, first compound 3.16 µM
[6] = second compound 0.0316 µM, first compound 10 µM
[7] = second compound 0.1 µM, first compound 0.0316 µM
[8] = second compound 0.1 µM, first compound 0.1 µM
[9] = second compound 0.1 µM, first compound 0.316 µM
[10] = second compound 0.1 µM, first compound 1 µM
[11] = second compound 0.1 µM, first compound 3.16 µM
[12] = second compound 0.1 µM, first compound 10 µM
[13] = second compound 0.316 µM, first compound 0.0316 µM
[14] = second compound 0.316 µM, first compound 0.1 µM
[15] = second compound 0.316 µM, first compound 0.316 µM
[16] = second compound 0.316 µM, first compound 1 µM
[17] = second compound 0.316 µM, first compound 3.16 µM
[18] = second compound 0.316 µM, first compound 10 µM
[19] = second compound 1 µM, first compound 0.0316 µM
[20] = second compound 1 µM, first compound 0.1 µM
[21] = second compound 1 µM, first compound 0.316 µM
[22] = second compound 1 µM, first compound 1 µM
[23] = second compound 1 µM, first compound 3.16 µM
[24] = second compound 1 µM, first compound 10 µM
[25] = second compound 3.16 µM, first compound 0.0316 µM
[26] = second compound 3.16 µM, first compound 0.1 µM
[27] = second compound 3.16 µM, first compound 0.316 µM
[28] = second compound 3.16 µM, first compound 1 µM
[29] = second compound 3.16 µM, first compound 3.16 µM
[30] = second compound 3.16 µM, first compound 10 µM
[31] = second compound 10 µM, first compound 0.0316 µM
[32] = second compound 10 µM, first compound 0.1 µM
[33] = second compound 10 µM, first compound 0.316 µM
[34] = second compound 10 µM, first compound 1 µM
[35] = second compound 10 µM, first compound 3.16 µM
[36] = second compound 10 µM, first compound 10 µM

COC(=O)c1ccc2c(C(=Nc3ccc(N(C)C(=O)CN4CCN(C)CC4)cc3)c3ccccc3)c(O)[nH]c2c1 + COc1cc2nc(C)nc(NC(C)c3cc(N)cc(C(F)(F)F)c3)c2cc1OC1CCOC1
551 nM: IC50 (second compound 0.316 µM)
active: viability, T/C [6] 0.31% | viability, T/C [12] 0.32% | viability, T/C [18] 0.35% | viability, T/C [24] 0.36% | viability, T/C [30] 0.29% | viability, T/C [35] 0.52% | viability, T/C [36] 0.28%
783 nM: IC50 (second compound 0.1 µM)
604 nM: IC50 (second compound 10 µM)
619 nM: IC50 (second compound 3.16 µM)
739 nM: IC50 (second compound 1 µM)
949 nM: IC50 (second compound 0.0316 µM)
inactive: viability, T/C [1] 77.5% | viability, T/C [2] 78.8% | viability, T/C [3] 72.5% | viability, T/C [4] 41% | viability, T/C [5] 29.7% | viability, T/C [7] 78.7% | viability, T/C [8] 89.2% | viability, T/C [9] 67.3% | viability, T/C [10] 40.2% | viability, T/C [11] 24.7% | viability, T/C [13] 72.2% | viability, T/C [14] 83.1% | viability, T/C [15] 52.7% | viability, T/C [16] 39.1% | viability, T/C [17] 22% | viability, T/C [19] 80.1% | viability, T/C [20] 83.4% | viability, T/C [21] 73% | viability, T/C [22] 38.6% | viability, T/C [23] 19.2% | viability, T/C [25] 59.8% | viability, T/C [26] 68.5% | viability, T/C [27] 62.5% | viability, T/C [28] 40.4% | viability, T/C [29] 17.2% | viability, T/C [31] 63.2% | viability, T/C [32] 68% | viability, T/C [33] 62.7% | viability, T/C [34] 39.1%

CCNC(=O)CC1N=C(c2ccc(Cl)cc2)c2cc(OC)ccc2-n2c(C)nnc21 (centres undefined) + COc1cc2nc(C)nc(NC(C)c3cc(N)cc(C(F)(F)F)c3)c2cc1OC1CCOC1
> 10000 nM: IC50 (second compound 0.0316 µM) | IC50 (second compound 0.1 µM) | IC50 (second compound 0.316 µM) | IC50 (second compound 1 µM) | IC50 (second compound 3.16 µM) | IC50 (second compound 10 µM)
inactive: viability, T/C [1] 89.6% | viability, T/C [2] 94% | viability, T/C [3] 94.3% | viability, T/C [4] 113% | viability, T/C [5] 114% | viability, T/C [6] 120% | viability, T/C [7] 78.7% | viability, T/C [8] 86.2% | viability, T/C [9] 89.3% | viability, T/C [10] 85.6% | viability, T/C [11] 124% | viability, T/C [12] 84.3% | viability, T/C [13] 86.4% | viability, T/C [14] 90.2% | viability, T/C [15] 105% | viability, T/C [16] 99.6% | viability, T/C [17] 89.5% | viability, T/C [18] 88.5% | viability, T/C [19] 89.8% | viability, T/C [20] 79.9% | viability, T/C [21] 73% | viability, T/C [22] 105% | viability, T/C [23] 100% | viability, T/C [24] 90% | viability, T/C [25] 73.5% | viability, T/C [26] 81.1% | viability, T/C [27] 75.9% | viability, T/C [28] 82.3% | viability, T/C [29] 84.6% | viability, T/C [30] 109% | viability, T/C [31] 60.6% | viability, T/C [32] 55.9% | viability, T/C [33] 69.5% | viability, T/C [34] 70% | viability, T/C [35] 82.1% | viability, T/C [36] 74.8%

From PubChem BioAssay AID2060912 (Molecular Pharmacology Branch, DTP, NCI, 2025)
